Reference: paper PMC12040169 (PLOS Biology, 2025)

Assay: in vitro
Conditions: human, hela cells, % viability

Compound | viability at 28.5 h, 10 µM [%]
COC(=O)[C@H]1CN(C(=O)c2scnc2C)C[C@@H]1c1ccc(F)cc1 [CBK283520] | 104
COC(=O)[C@H]1CN(C(=O)C2CC(=O)N(C)C2)C[C@@H]1c1ccc(F)cc1 (stereo partly shown) [CBK283521] | 93
O=C(CCn1cnc2ccccc21)N1CCC(c2ccncc2)CC1 [CBK283522] | 102
CCC(C(=O)N1CCC(C(=O)c2cccnc2)CC1)c1ccccc1 (stereo not shown) [CBK283525] | 91.1
O=C(c1cccnc1)C1CCN(C(=O)c2cccs2)CC1 [CBK283528] | 102
Cc1cc(C)n(CCC(=O)N2CCC(c3ccncc3)CC2)n1 [CBK283529] | 94.1
Cc1ncsc1C(=O)N1CCCCC1c1nc2ccccc2[nH]1 (stereo not shown) [CBK283531] | 95.9
CC(c1ccccc1)c1nc2cnccn2c1NC(C)(C)C (stereo not shown) [CBK283533] | 92.3
COCCn1c(=O)n(CC=C(C)C)c2cccnc21 [CBK283534] | 92.1
Cn1ccnc1C1(O)CCN(C(=O)c2ccccc2F)CC1 [CBK283536] | 105
O=C(Cc1cccnc1)N1CCC(O)(c2cccc(F)c2)CC1 [CBK283537] | 95.9
Cc1ccc2cc3c(nc2c1)OCC(=O)N(Cc1ccco1)C3 [CBK283539] | 92.9
c1coc(CNc2c(-c3cccs3)nc3cnccn23)c1 [CBK283540] | 93.2
Cn1ccnc1C1(O)CCN(C(=O)CCc2ccccc2)CC1 [CBK283542] | 92
Cn1ccnc1C1(O)CCN(C(=O)c2cc(F)cc(F)c2)CC1 [CBK283544] | 102
O=C(C1CCC1)N1C2CCC1CC(O)(c1ccc(F)cc1)C2 (stereo not shown) [CBK283547] | 92.5
O=C(CN1CCC(c2ccccc2F)CC1)NCc1ccco1 [CBK283550] | 88.3
O=C(CN1CCC(c2ccccc2F)CC1)NC1CCCC1 [CBK283551] | 97.4
Cn1ccnc1C1(O)CCN(C(=O)c2ccc(F)cc2F)CC1 [CBK283552] | 103
O=C(c1cccc(Cl)c1)N1CCC(O)(c2cccnc2)CC1 [CBK283553] | 93.2
O=C(Cn1ncc2cccn2c1=O)OCC(F)(F)F [CBK283554] | 93.7
Cc1nn(CC(=O)N2C(C)CCCC2C)c(=O)c2cc3occc3n12 (stereo not shown) [CBK283555] | 80.8
Cc1ccc(C2=CCN(CC(=O)N3CCCCC3C)CC2)o1 (stereo not shown) [CBK283556] | 86.8
COc1ccc(C2CCN(CC(=O)NC(C)(C)C)CC2)cc1 [CBK283558] | 92.7

Compound | viability at 28.5 h, 10 µM [%]
CCN(CC)C(=O)CN1CCC(c2ccc(OC)cc2)CC1 [CBK283559] | 102
C=CCNC(=O)CN1CCC(c2ccc(OC)cc2)CC1 [CBK283560] | 106
COc1ccc(C2CCN(CC(=O)N3CCCC3)CC2)cc1 [CBK283561] | 101
COc1ccc(C2CCN(Cc3cccnc3)CC2)cc1 [CBK283564] | 96.1
Cc1ccc(C2=CCN(S(=O)(=O)c3ccc(F)cc3)CC2)o1 [CBK283571] | 93
COc1ccc(CC(=O)N2CC=C(c3ccc(C)o3)CC2)cc1 [CBK283572] | 92.4
O=C(Cc1ccc(F)cc1)N1CCC(n2cnc3cccnc32)CC1 [CBK283574] | 91.1
CCc1nn(CC(=O)N(C)C)c(=O)c2cc3oc(C)cc3n12 [CBK283576] | 114
O=C(CN1CCC(c2ccccc2F)CC1)Nc1nccs1 [CBK283579] | 106
CC(c1cccc(F)c1)n1cc(C(=O)NCCc2ccco2)nn1 (stereo not shown) [CBK283582] | 102
CCc1nn(CC(=O)N2CCCC2)c(=O)c2cc3oc(C)cc3n12 [CBK283584] | 110
Cn1ccnc1C1(O)CCN(C(=O)Cc2ccccc2F)CC1 [CBK283585] | 97.6
O=C(Cc1cccc(F)c1)N1CCC(O)(c2ccccn2)CC1 [CBK283586] | 100
O=C(Cc1cccs1)N1CCC(O)(c2ccccn2)CC1 [CBK283587] | 96.4
O=C(Cc1ccc(F)cc1)N1CCC(O)(c2ccccn2)CC1 [CBK283588] | 97
Cc1cc2c(cc3c(=O)n(CC(=O)N4CCC(C)CC4)nc(C)n32)o1 [CBK283590] | 90.1
Cc1nc2cccnc2n1CCNC(=O)Cc1cccs1 [CBK283592] | 107
Cc1nc2cccnc2n1CCNC(=O)c1cccc(Cl)c1 [CBK283593] | 97.9
Cc1ccc2nc3c(cc2c1)CN(Cc1ccco1)C(=O)CO3 [CBK283594] | 103
O=C(NC1(c2ccc(F)cc2)CCCC1)c1cnccn1 [CBK283595] | 85.1
CCOc1ccc(CC(=O)N2CCC(c3ccncc3)CC2)cc1 [CBK283596] | 87.8
O=C1CC2(CCN(C(=O)N3CCCC3)CC2)Oc2ccc(F)cc21 [CBK283597] | 84.9
COc1ccccc1[C@@H]1C[C@H](OC(=O)c2ccc(F)cc2)C(=O)N1C [CBK283598] | 92
Cc1ccc2c(c1)C(=O)CC1(CCN(C(=O)OC(C)(C)C)CC1)O2 [CBK283599] | 98

Compound | viability at 28.5 h, 10 µM [%]
COc1cccc(C2(NC(=O)CCn3nccc3C)CCCC2)c1 [CBK283601] | 101
CN1CC=C(/C=C/c2c[nH]c3ccccc23)CC1 [CBK283602] | 89.4
O=C(CCC1CCCC1)N1CCC(O)(c2cccnc2)CC1 [CBK283603] | 101
Cc1csc(NC(=O)CN2CC=C(c3ccc(C)o3)CC2)n1 [CBK283606] | 96.5
Cc1cc(NC(=O)CN2CC=C(c3ccc(C)o3)CC2)no1 [CBK283608] | 106
CC(=O)NC1(c2ccc(F)cc2)CCN(Cc2cccnc2)CC1 [CBK283610] | 103
O=C(NC1(c2ccc(F)cc2)CCCC1)c1cnn2cccnc12 [CBK283612] | 97.4
Cc1nonc1CC(=O)NC1(c2ccc(F)cc2)CCCC1 [CBK283613] | 93.2
Cc1nn(C)cc1C(=O)O[C@H]1C[C@@H](c2ccc(F)cc2)N(C)C1=O [CBK283615] | 103
Cc1cccnc1C1(O)CCN(C(=O)Cc2ccccc2F)CC1 [CBK283617] | 97.8
O=C(NC1(c2cccc(F)c2)CCCC1)c1cnccn1 [CBK283619] | 93
Cc1nn(CC(=O)N2CCCC2)c(=O)c2cc3occc3n12 [CBK283621] | 84.5
Cc1nn(CC(=O)N2CCCCC2C)c(=O)c2cc3occc3n12 (stereo not shown) [CBK283622] | 76.7
Cc1nn(CC(=O)N2CCCC(C)C2)c(=O)c2cc3occc3n12 (stereo not shown) [CBK283623] | 91.6
Cc1nn(CC(=O)N2CCCCCC2)c(=O)c2cc3occc3n12 [CBK283624] | 96.5
O=C1CC2(CCN(C(=O)C3CCCC3)CC2)Oc2ccc(Cl)cc21 [CBK283625] | 90.9
COc1ccccc1C1(NC(=O)CCn2cccn2)CCCC1 [CBK283626] | 103
COc1ccccc1C1(NC(=O)CCn2nccc2C)CCCC1 [CBK283628] | 89.7
Cc1ccc(C2=CCN(CC(=O)NCc3ccco3)CC2)o1 [CBK283632] | 107
Cc1ccc(C2=CCN(CC(=O)Nc3ccccn3)CC2)o1 [CBK283634] | 98.7
Cc1nc2cccnc2n1C1CCN(C(=O)NC2CCCCC2)CC1 [CBK283637] | 88.5
CCc1nc2cccnc2n1CCNC(=O)Cc1cccs1 [CBK283639] | 98.9
O=C(CN1CCC(c2ccc(F)cc2)CC1)N1CCCCC1 [CBK283640] | 101
Cc1cc(O)n2nc(C)c(-c3ccc(F)cc3)c2n1 [CBK283642] | 89.3

Compound | viability at 28.5 h, 10 µM [%]
COc1ccccc1C1(NC(=O)c2c(C)noc2C)CCCC1 [CBK283644] | 95
Cc1ccc(C)n1-c1cccc(C(=O)N2CCn3cnnc3C2)c1 [CBK283646] | 96.2
Cn1ccnc1C1(O)CCN(C(=O)CC2CCCCC2)CC1 [CBK283647] | 97.2
COc1cccc(C2(NC(=O)Cn3nc(C)cc3C)CCCC2)c1 [CBK283648] | 98.1
CN1C(=O)[C@@H](OC(=O)c2cccnc2)C[C@H]1c1ccc(F)cc1 [CBK283649] | 104
O=C(c1cc[nH]n1)N1CCC2(CC1)Nc1ccccc1-n1cccc12 [CBK283652] | 96.1
Cc1nn(CC(=O)N2CCC(C)CC2)c(=O)c2cc3occc3n12 [CBK283654] | 89.8
Cc1nn(CC(=O)N(C(C)C)C(C)C)c(=O)c2cc3occc3n12 [CBK283655] | 98.4
CCc1nn(CC(=O)N2CCCC(C)C2)c(=O)c2cc3occc3n12 (stereo not shown) [CBK283657] | 79.3
COc1cccc(CC(=O)N2CCCC2c2nc3ccccc3[nH]2)c1 (stereo not shown) [CBK283665] | 99.8
COc1ccc(CC(=O)N2CCCC2c2nc3ccccc3[nH]2)cc1 (stereo not shown) [CBK283666] | 93.4
COc1ccc(CCC2CCN(C)CC2)c(O)c1 [CBK283668] | 104
O=C(c1ccc(F)cc1)N1CCC(O)(c2ccccn2)CC1 [CBK283669] | 92.9
CC1CCCCC1NC(=O)Cn1ncc2cccn2c1=O (stereo not shown) [CBK283673] | 98.7
CCc1nn(CC(=O)N2CCCCC2)c(=O)c2cc3occc3n12 [CBK283674] | 77
CCc1nn(CC(=O)N2CCCCCC2)c(=O)c2cc3occc3n12 [CBK283677] | 86.9
Cc1cccnc1C1(O)CCN(C(=O)Cc2ccccc2Cl)CC1 [CBK283682] | 98.7
O=C(c1ccc2ncccc2c1)N1CCC(c2ccncc2)CC1 [CBK283684] | 90.3
c1csc(CNc2c(-c3cccs3)nc3cnccn23)c1 [CBK283685] | 92.7
O=C(Cc1ccc(F)cc1)N1CCn2c(nnc2C2CC2)C1 [CBK283688] | 113
O=C(CCCc1c[nH]c2ccccc12)N1CCn2c(nnc2C2CC2)C1 [CBK283689] | 96.6
Cc1ccnn1CCC(=O)NC1(c2ccccc2F)CCCC1 [CBK283691] | 81.7
